From ChEMBL document CHEMBL1201862, “PubChem BioAssay data set” (2004)
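These data come from cells grown in 96-well plates and exposed to compound for 48 hours at five concentrations. GI50: concentration for 50% inhibition of growth.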 Calls of active or inactive are those of the source. Rule as the data show it: active = GI50 up to about 1.1 µM and inactive = higher.

Key:
Assay in all cases: DTP human tumour cell line panel, 48 h
786-0 = tested on: 786-0
A498 = tested on: A498
A549 = tested on: A549
ACHN = tested on: ACHN
CCRF-CEM = tested on: CCRF-CEM
COLO 205 = tested on: COLO 205
DLD-1 = tested on: DLD-1
DMS-114 = tested on: DMS-114
DMS-273 = tested on: DMS-273
EKVX = tested on: EKVX
HCC 2998 = tested on: HCC 2998
HCT-116 = tested on: HCT-116
HCT-15 = tested on: HCT-15
HL-60 = tested on: HL-60
HOP-18 = tested on: HOP-18
HOP-62 = tested on: HOP-62
HOP-92 = tested on: HOP-92
K562 = tested on: K562
KM-20L2 = tested on: KM-20L2
KM12 = tested on: KM12
LOX IMVI = tested on: LOX IMVI
LXFL 529 = tested on: LXFL 529
M14 = tested on: M14
M19-MEL = tested on: M19-MEL
MOLT-4 = tested on: MOLT-4
Malme-3M = tested on: Malme-3M
NCI-H23 = tested on: NCI-H23
NCI-H460 = tested on: NCI-H460
NCI-H522 = tested on: NCI-H522
OVCAR-3 = tested on: OVCAR-3
OVCAR-5 = tested on: OVCAR-5
OVCAR-8 = tested on: OVCAR-8
RPMI-8226 = tested on: RPMI-8226
RXF 393 = tested on: RXF 393
SF-268 = tested on: SF-268
SF-295 = tested on: SF-295
SF-539 = tested on: SF-539
SK-MEL-28 = tested on: SK-MEL-28
SK-MEL-2 = tested on: SK-MEL-2
SK-MEL-5 = tested on: SK-MEL-5
SK-OV-3 = tested on: SK-OV-3
SN12C = tested on: SN12C
SNB-19 = tested on: SNB-19
SNB-78 = tested on: SNB-78
SR = tested on: SR
SW-620 = tested on: SW-620
TK-10 = tested on: TK-10
U-251 = tested on: U-251
UACC-257 = tested on: UACC-257
UACC-62 = tested on: UACC-62
UO-31 = tested on: UO-31
HT-29 = tested on: HT-29
NCI-H226 = tested on: NCI-H226
OVCAR-4 = tested on: OVCAR-4
SNB-75 = tested on: SNB-75
XF498 = tested on: XF498
BT-549 = tested on: BT-549
CAKI-1 = tested on: CAKI-1
DU-145 = tested on: DU-145
IGROV-1 = tested on: IGROV-1
MCF7 = tested on: MCF7
MDA-MB-231 = tested on: MDA-MB-231
MDA-MB-435 = tested on: MDA-MB-435
MDA-N = tested on: MDA-N
PC-3 = tested on: PC-3
T47D = tested on: T47D

O=C1C2=C(CCCC2)Nc2cccc3ncn1c23
GI50 (786-0): > 100 µM (inactive) | GI50 (A498): > 100 µM (inactive) | GI50 (A549): > 100 µM (inactive) | GI50 (ACHN): > 100 µM (inactive) | GI50 (CCRF-CEM): > 100 µM (inactive) | GI50 (COLO 205): > 100 µM (inactive) | GI50 (DLD-1): > 100 µM (inactive) | GI50 (DMS-114): > 100 µM (inactive) | GI50 (DMS-273): > 100 µM (inactive) | GI50 (EKVX): > 100 µM (inactive) | GI50 (HCC 2998): > 100 µM (inactive) | GI50 (HCT-116): > 100 µM (inactive) | GI50 (HCT-15): > 100 µM | GI50 (HL-60): > 100 µM (inactive) | GI50 (HOP-18): 10.3 µM (inactive) | GI50 (HOP-62): > 100 µM (inactive) | GI50 (HOP-92): > 100 µM (inactive) | GI50 (K562): > 100 µM (inactive) | GI50 (KM-20L2): > 100 µM (inactive) | GI50 (KM12): > 100 µM (inactive) | GI50 (LOX IMVI): > 100 µM (inactive) | GI50 (LXFL 529): > 100 µM (inactive) | GI50 (M14): > 100 µM (inactive) | GI50 (M19-MEL): > 100 µM (inactive) | GI50 (MOLT-4): > 100 µM (inactive) | GI50 (Malme-3M): > 100 µM (inactive) | GI50 (NCI-H23): > 100 µM (inactive) | GI50 (NCI-H460): > 100 µM (inactive) | GI50 (NCI-H522): > 100 µM (inactive) | GI50 (OVCAR-3): > 100 µM (inactive) | GI50 (OVCAR-5): > 100 µM (inactive) | GI50 (OVCAR-8): > 100 µM (inactive) | GI50 (RPMI-8226): > 100 µM (inactive) | GI50 (RXF 393): > 100 µM (inactive) | GI50 (SF-268): > 100 µM (inactive) | GI50 (SF-295): > 100 µM (inactive) | GI50 (SF-539): > 100 µM (inactive) | GI50 (SK-MEL-28): > 100 µM (inactive) | GI50 (SK-MEL-2): > 100 µM (inactive) | GI50 (SK-MEL-5): > 100 µM (inactive) | GI50 (SK-OV-3): > 100 µM (inactive) | GI50 (SN12C): > 100 µM (inactive) | GI50 (SNB-19): > 100 µM (inactive) | GI50 (SNB-78): > 100 µM (inactive) | GI50 (SR): > 100 µM (inactive) | GI50 (SW-620): > 100 µM (inactive) | GI50 (TK-10): > 100 µM (inactive) | GI50 (U-251): > 100 µM (inactive) | GI50 (UACC-257): > 100 µM (inactive) | GI50 (UACC-62): > 100 µM (inactive) | GI50 (UO-31): > 100 µM (inactive)

c1ccc(-c2nc3ccccc3nc2SCc2cccnc2)cc1
GI50 (786-0): > 100 µM (inactive) | GI50 (A549): > 100 µM (inactive) | GI50 (ACHN): > 100 µM (inactive) | GI50 (CCRF-CEM): > 100 µM (inactive) | GI50 (COLO 205): > 100 µM (inactive) | GI50 (DMS-114): > 100 µM (inactive) | GI50 (DMS-273): > 100 µM (inactive) | GI50 (EKVX): > 100 µM (inactive) | GI50 (HCT-116): > 100 µM (inactive) | GI50 (HL-60): > 100 µM (inactive) | GI50 (HOP-18): 14.4 µM (inactive) | GI50 (HOP-92): > 100 µM (inactive) | GI50 (HT-29): > 100 µM (inactive) | GI50 (K562): > 100 µM (inactive) | GI50 (LXFL 529): > 100 µM (inactive) | GI50 (M14): > 100 µM (inactive) | GI50 (MOLT-4): > 100 µM (inactive) | GI50 (Malme-3M): > 100 µM (inactive) | GI50 (NCI-H226): > 100 µM (inactive) | GI50 (NCI-H23): > 100 µM (inactive) | GI50 (OVCAR-3): > 100 µM (inactive) | GI50 (OVCAR-4): > 100 µM (inactive) | GI50 (OVCAR-8): > 100 µM (inactive) | GI50 (RPMI-8226): > 100 µM (inactive) | GI50 (SF-268): > 100 µM (inactive) | GI50 (SF-295): > 100 µM (inactive) | GI50 (SK-MEL-28): > 100 µM (inactive) | GI50 (SK-OV-3): > 100 µM (inactive) | GI50 (SN12C): > 100 µM (inactive) | GI50 (SNB-19): > 100 µM (inactive) | GI50 (SNB-75): > 100 µM (inactive) | GI50 (SNB-78): > 100 µM (inactive) | GI50 (U-251): > 100 µM (inactive) | GI50 (UACC-257): > 100 µM (inactive) | GI50 (UO-31): 56.6 µM (inactive) | GI50 (XF498): > 100 µM (inactive)

CN(C)CC1CCC(CN(C)C)C(=O)C1=O (configuration not stated)
GI50 (786-0): 5.14 µM (inactive) | GI50 (A498): 16.8 µM (inactive) | GI50 (A549): 10.9 µM (inactive) | GI50 (ACHN): 4.85 µM (inactive) | GI50 (BT-549): 8.67 µM (inactive) | GI50 (CAKI-1): 1.99 µM (inactive) | GI50 (CCRF-CEM): 1.73 µM (inactive) | GI50 (COLO 205): 1.79 µM (inactive) | GI50 (DLD-1): 3.05 µM (inactive) | GI50 (DMS-114): 6.62 µM (inactive) | GI50 (DMS-273): 15.8 µM (inactive) | GI50 (DU-145): 16.5 µM (inactive) | GI50 (EKVX): 17.3 µM (inactive) | GI50 (HCC 2998): 20.9 µM (inactive) | GI50 (HCT-116): 2.4 µM (inactive) | GI50 (HCT-15): 3 µM | GI50 (HL-60): 2.36 µM (inactive) | GI50 (HOP-18): 1.5 µM (inactive) | GI50 (HOP-62): 20.1 µM (inactive) | GI50 (HOP-92): 1.99 µM (inactive) | GI50 (HT-29): 7.64 µM (inactive) | GI50 (IGROV-1): 17.6 µM (inactive) | GI50 (K562): 2.27 µM (inactive) | GI50 (KM-20L2): 16.4 µM (inactive) | GI50 (KM12): 14.2 µM (inactive) | GI50 (LOX IMVI): 8.63 µM (inactive) | GI50 (LXFL 529): 1.67 µM (inactive) | GI50 (M14): 5.52 µM (inactive) | GI50 (M19-MEL): 19 µM (inactive) | GI50 (MCF7): 2.46 µM (inactive) | GI50 (MDA-MB-231): 6.22 µM (inactive) | GI50 (MDA-MB-435): 17.8 µM (inactive) | GI50 (MDA-N): > 10 µM (inactive) | GI50 (MOLT-4): 2.03 µM (inactive) | GI50 (Malme-3M): 1.92 µM (inactive) | GI50 (NCI-H226): 4.41 µM (inactive) | GI50 (NCI-H23): 14.6 µM (inactive) | GI50 (NCI-H460): 18.8 µM (inactive) | GI50 (NCI-H522): 0.946 µM (active) | GI50 (OVCAR-3): 2.31 µM (inactive) | GI50 (OVCAR-4): 7.8 µM (inactive) | GI50 (OVCAR-5): 16.5 µM (inactive) | GI50 (OVCAR-8): 3.01 µM (inactive) | GI50 (PC-3): 16.7 µM (inactive) | GI50 (RPMI-8226): 2.52 µM (inactive) | GI50 (RXF 393): 1.82 µM (inactive) | GI50 (SF-268): 6.75 µM (inactive) | GI50 (SF-295): 16.6 µM (inactive) | GI50 (SF-539): 7.18 µM (inactive) | GI50 (SK-MEL-28): 8.87 µM (inactive) | GI50 (SK-MEL-2): 19.3 µM (inactive) | GI50 (SK-MEL-5): 16.3 µM (inactive) | GI50 (SK-OV-3): 24 µM (inactive) | GI50 (SN12C): 18.4 µM (inactive) | GI50 (SNB-19): 17.7 µM (inactive) | GI50 (SNB-75): 14.7 µM (inactive) | GI50 (SR): 2.09 µM (inactive) | GI50 (SW-620): 1.83 µM (inactive) | GI50 (T47D): 2.31 µM (inactive) | GI50 (TK-10): 3.6 µM (inactive) | GI50 (U-251): 12.7 µM (inactive) | GI50 (UACC-257): 2.4 µM (inactive) | GI50 (UACC-62): 16.1 µM (inactive) | GI50 (UO-31): 3.48 µM (inactive) | GI50 (XF498): 2.54 µM (inactive)
